In US4863904A, “Dipeptides as renin inhibitors” (priority 1984, dated 1989):
pIC50: −log10 of the molar value. One block for each compound: values may come before it.

Legend:
common marmosets = assay: Depressive effect in marmosets (blood pressure of conscious marmosets in a high renin state); type: in vivo; settings: 100 mg/kg orally, conscious furosemide-treated common marmoset
Procedure: The experiment was carried out by using common marmosets as described in K. G. Hofbauer et al., Clinical and Experimental Hypertension-Theory and Practice, Vol A5, Nos 7 & 8 (1983), pages 1237-1247.
Furosemide was orally administered three times to common marmosets at 15 mg per kilogram per day every other day to create a high renin state. The operation was performed according to the method used by K. G. Hofbauer et al., and blood pressure of conscious marmosets was measured 2 days after the last administration of furosemide.
Male common marmosets weighing 350 g and 280 g were lightly anesthetized by Ketamine hydrochloride (Ketalar®, 10 to 20 mg/kg i.m.), and their femoral artery and vein was exposed. Catheters being filled with a heparin solution was subcutaneously inserted into the femoral vein and the femoral artery from the tail. After suturing of the opened part, the marmosets were placed on a heated mat. After complete recovery from the anesthesia, a dipeptide of the present invention (100 mg/kg) was orally administered through a soft catheter.
The arterial catheter was connected to a pressure transducer and blood pressure was recorded on the polygraph.

human renin = target: T1, human renin (Homo sapiens, UniProt P00797); assay: Human renin-sheep renin substrate reaction system in vitro; type: biochemical; settings: purified human renin, semipurified sheep renin substrate, pH 7.4, 37° C., 15 minutes; angiotensin I by radioimmunoassay; read-out: IC50 (molar concentration)
T1 sequence (P00797 67-406): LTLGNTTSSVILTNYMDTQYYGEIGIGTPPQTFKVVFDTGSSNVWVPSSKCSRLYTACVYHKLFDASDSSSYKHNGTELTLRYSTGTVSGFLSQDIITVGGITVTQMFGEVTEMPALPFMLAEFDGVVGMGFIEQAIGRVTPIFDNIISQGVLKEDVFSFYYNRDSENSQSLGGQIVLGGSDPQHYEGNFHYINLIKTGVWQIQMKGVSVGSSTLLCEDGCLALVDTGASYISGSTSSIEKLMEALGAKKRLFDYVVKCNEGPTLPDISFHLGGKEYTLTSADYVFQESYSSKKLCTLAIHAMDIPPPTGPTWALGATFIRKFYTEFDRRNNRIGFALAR
Procedure: The mixture was incubated for 15 minutes on a water bath at 37° C., and the reaction mixture was allowed to stand for 5 minutes on a water bath at 100° C. to stop the reaction. After cooling, 200 μl of the solution was taken up and the amount of angiotensin I produced by the addition of renin was determined by radioimmunoassay. The inhibitory effect was calculated by the following equation. [formula]
As a control, the same procedure as above was carried out by using 50 μl of dimethyl sulfoxide alone in place of the 50 μl of dimethyl sulfoxide solution containing a dipeptide of the present invention.

pIC50 (human renin): 5.47
SMILES: CC(C)C[C@@H](C=O)NC(=O)[C@H](Cc1c[nH]cn1)NC(=O)C(CCCCc1ccc2ccccc2c1)Cc1ccccc1 (stereo partly drawn) [N-[2-Benzyl-6-(2-naphthyl)hexanoyl]-L-histidyl-L-leucinal]

pIC50 (human renin): 5.70
SMILES: CC(C)C[C@@H](C=O)NC(=O)[C@H](Cc1c[nH]cn1)NC(=O)C(CCCCCc1ccccc1)Cc1ccccc1 (stereo partly drawn) [N-[2-Benzyl-7-phenylheptanoyl)-L-histidyl-L-leucinal]

pIC50 (human renin): 5.46
SMILES: CC(C)C[C@@H](C=O)NC(=O)[C@H](Cc1c[nH]cn1)NC(=O)C(CCc1ccccc1)CCc1ccccc1 [N-[4-Phenyl-2-(2-phenylethyl)butanoyl]-L-histidyl-L-leucinal]

pIC50 (human renin): 7.06
SMILES: CC(C)C[C@@H](C=O)NC(=O)[C@H](Cc1c[nH]cn1)NC(=O)C(CCCCc1ccccc1)Cc1cccc2ccccc12 (stereo partly drawn) [N-[(+)-2-(1-Naphthylmethyl)-6-phenylhexanoyl]-L-histidyl-L-leucinal]

pIC50 (human renin): 6.34
SMILES: CC(C)C[C@@H](C=O)NC(=O)[C@H](Cc1c[nH]cn1)NC(=O)C(CCCCc1ccccc1)Cc1cccc2ccccc12 (stereo partly drawn) [N-[(-)-2-(1-Naphthylmethyl)-6-phenylhexanoyl]-L-histidyl-L-leucinal]

Second part, the compound before the results:

SMILES: CC(C)C[C@@H](C=O)NC(=O)[C@H](Cc1c[nH]cn1)NC(=O)C(CC(=O)NCCc1ccccc1)Cc1cccc2ccccc12 (stereo partly drawn) [N-[2-(1-Naphthylmethyl)-3-(phenethylcarbamoyl)propionyl]-L-histidyl-L-leucinal]
Blood pressure (mm Hg) (common marmosets; 60 min. after administration): 98.2 mm Hg
Blood pressure (mm Hg) (common marmosets; 120 min. after administration): 88.0 mm Hg
Blood pressure (mm Hg) (common marmosets; 180 min. after administration): 87.6 mm Hg
Blood pressure (mm Hg) (common marmosets; 300 min. after administration): 96.5 mm Hg
Blood pressure (mm Hg) (common marmosets; 420 min. after administration): 101.2 mm Hg

SMILES: CC(C)C[C@@H](CO)NC(=O)[C@H](Cc1c[nH]cn1)NC(=O)C(CC(=O)NCCc1ccccc1)Cc1cccc2ccccc12 (stereo partly drawn) [N-[2-(1-Naphthylmethyl)-3-(phenethylcarbamoyl)propionyl]-L-histidyl-L-leucinol]
Blood pressure (mm Hg) (common marmosets; 60 min. after administration): 97.7 mm Hg
Blood pressure (mm Hg) (common marmosets; 120 min. after administration): 89.5 mm Hg
Blood pressure (mm Hg) (common marmosets; 180 min. after administration): 95.3 mm Hg
Blood pressure (mm Hg) (common marmosets; 300 min. after administration): 97.4 mm Hg
Blood pressure (mm Hg) (common marmosets; 420 min. after administration): 99.0 mm Hg

SMILES: CC(C)C[C@@H](C=O)NC(=O)[C@H](Cc1c[nH]cn1)NC(=O)C(=Cc1ccccc1)CC(=O)NCc1cccc2ccccc12 [N-[2-Benzylidene-3-(1-naphthylmethylcarbamoyl)propionyl]-L-histidyl-L-leucinal]
pIC50 (human renin): 5.42
